{"source": "ChEMBL document CHEMBL4765442", "about": "“Anti-Giardia Drug Discovery: Current Status and Gut Feelings” (J Med Chem, 2020)", "key": {"Giardia intestinalis [1]": {"test_system": "Giardia intestinalis", "experiment": "Antigiardial activity against Giardia intestinalis IMSS:0696:1 incubated for 48 hrs followed by wash out by hemocytometric counting method", "format": "functional, organism-based", "conditions": "Giardia duodenalis, IMSS:0696:1, 48 h"}, "Giardia intestinalis [2]": {"test_system": "Giardia intestinalis", "experiment": "Antigiardial activity against Giardia duodenalis BRIS/91/HEPU/1279 incubated for 3 days followed by compound wash-out and measured after 4 days", "format": "functional", "conditions": "time 3 day"}, "Giardia intestinalis [3]": {"test_system": "Giardia intestinalis", "experiment": "Antigiardial activity against Giardia duodenalis BRIS/83/HEPU/106 incubated for 3 days followed by compound wash-out and measured after 4 days", "format": "functional", "conditions": "time 3 day"}, "Giardia intestinalis [4]": {"test_system": "Giardia intestinalis", "experiment": "Antigiardial activity against metronidazole-resistant Giardia duodenalis BRIS/83/HEPU/106-2ID10 incubated for 3 days followed by compound wash-out and measured after 4 days", "format": "functional", "conditions": "time 3 day"}, "Giardia intestinalis [5]": {"test_system": "Giardia intestinalis", "experiment": "Antigiardial activity against metronidazole-resistant Giardia duodenalis WB1B-M3 incubated for 3 days followed by compound wash-out and measured after 4 days", "format": "functional", "conditions": "time 3 day"}, "Giardia intestinalis [6]": {"test_system": "Giardia intestinalis", "experiment": "Growth inhibition of Giardia duodenalis isolate 14-03/F7 measured after 24 hrs by resazurin based assay", "format": "functional, organism-based", "conditions": "isolate 14-03/F7, 24 h"}, "Giardia intestinalis [7]": {"test_system": "Giardia intestinalis", "experiment": "Antigiardial activity against Giardia duodenalis GS/M-83-H7 (ATCC 50581) incubated for 3 days by fluorescence method", "format": "functional, organism-based", "conditions": "72 h"}, "Giardia intestinalis [8]": {"test_system": "Giardia intestinalis", "experiment": "Antigiardial activity against Giardia duodenalis WB (ATCC 30957) incubated for 3 days by fluorescence method", "format": "functional, organism-based", "conditions": "WB ATCC 30957, 72 h"}, "Giardia intestinalis [9]": {"test_system": "Giardia intestinalis", "experiment": "Antigiardial activity against Giardia duodenalis G1 incubated for 3 days by fluorescence method", "format": "functional, organism-based", "conditions": "G1, 72 h"}, "Giardia intestinalis [10]": {"test_system": "Giardia intestinalis", "experiment": "Antigiardial activity against Giardia duodenalis Ah1 incubated for 3 days by fluorescence method", "format": "functional, organism-based", "conditions": "Ah1, 72 h"}, "Giardia intestinalis [11]": {"test_system": "Giardia intestinalis", "experiment": "Antigiardial activity against Giardia duodenalis Ah2 incubated for 3 days by fluorescence method", "format": "functional, organism-based", "conditions": "Ah2, 72 h"}, "Giardia intestinalis [12]": {"test_system": "Giardia intestinalis", "experiment": "Antigiardial activity against Giardia duodenalis Ac1 incubated for 3 days by fluorescence method", "format": "functional, organism-based", "conditions": "Ac1, 72 h"}, "Giardia intestinalis [13]": {"test_system": "Giardia intestinalis", "experiment": "Antigiardial activity against Giardia duodenalis Ac2 incubated for 3 days by fluorescence method", "format": "functional, organism-based", "conditions": "Ac2, 72 h"}, "Giardia intestinalis [14]": {"test_system": "Giardia intestinalis", "experiment": "Antigiardial activity against Giardia duodenalis Ec1 incubated for 3 days by fluorescence method", "format": "functional, organism-based", "conditions": "Ec1, 72 h"}, "Giardia intestinalis [15]": {"test_system": "Giardia intestinalis", "experiment": "Antigiardial activity against Giardia duodenalis Ec2 incubated for 3 days by fluorescence method", "format": "functional, organism-based", "conditions": "Ec2, 72 h"}, "[16]": {"experiment": "Half-life of the compound", "format": "physicochemical"}, "Giardia intestinalis [17]": {"test_system": "Giardia intestinalis", "experiment": "Antigiardial activity against Giardia duodenalis WBC6 trophozoites incubated for 72 hrs under anaerobic condition by resazurin-dye based fluorimetry", "format": "functional, organism-based", "conditions": "WBC6, 72 h"}, "Giardia intestinalis [18]": {"test_system": "Giardia intestinalis", "experiment": "Antigiardial activity against Giardia duodenalis WBC6 trophozoites incubated for 48 hrs under microaerophilic condition by methylene blue colorimetric assay", "format": "functional, organism-based", "conditions": "WBC6, 48 h"}, "Giardia intestinalis [19]": {"test_system": "Giardia intestinalis", "experiment": "Antigiardial activity against Giardia intestinalis WB ATCC 30957 incubated for 72 hrs by hemocytometric counting method", "format": "functional, organism-based", "conditions": "Giardia duodenalis, WB ATCC 30957, 72 h"}, "Giardia intestinalis [20]": {"test_system": "Giardia intestinalis", "experiment": "Antimicrobial activity against Giardia lamblia BRIS/87/HEPU/713 trophozoites measured after 48 hrs by BacTiter-Glo cell viability assay", "format": "functional, organism-based", "conditions": "Giardia duodenalis, BRIS/87/HEPU/713, 48 h"}, "[21]": {"experiment": "Selectivity ratio of CC50 for human HeLa cells incubated for 2 days by alamarBlue reagent to IC50 for Giardia lamblia BRIS/87/HEPU/713 measured after 48 hrs by BacTiter-Glo cell viability assay", "format": "toxicity", "conditions": "read-out: Ratio CC50/IC50"}, "Giardia intestinalis [22]": {"test_system": "Giardia intestinalis", "experiment": "Antimicrobial activity against Giardia lamblia BRIS/83/HEPU/106 trophozoites measured after 2 days by BacTiter-Glo cell viability assay", "format": "functional, organism-based", "conditions": "Giardia duodenalis, BRIS/83/HEPU/106, 48 h"}, "Giardia intestinalis [23]": {"test_system": "Giardia intestinalis", "experiment": "Antimicrobial activity against Giardia lamblia 713M3 trophozoites measured after 2 days by BacTiter-Glo cell viability assay", "format": "functional, organism-based", "conditions": "Giardia duodenalis, 713M3, 48 h"}, "Giardia intestinalis [24]": {"test_system": "Giardia intestinalis", "experiment": "Antimicrobial activity against Giardia lamblia WB-M2 trophozoites measured after 2 days by BacTiter-Glo cell viability assay", "format": "functional, organism-based", "conditions": "Giardia duodenalis, WB-M2, 48 h"}, "[25]": {"experiment": "Selectivity ratio of CC50 for human HeLa cells incubated for 2 days by alamarBlue reagent to IC50 for Giardia lamblia BRIS/83/HEPU/106 measured after 48 hrs by BacTiter-Glo cell viability assay", "format": "toxicity", "conditions": "read-out: Ratio CC50/IC50"}, "[26]": {"experiment": "Selectivity ratio of CC50 for human HeLa cells incubated for 2 days by alamarBlue reagent to IC50 for Giardia lamblia 713M3 measured after 48 hrs by BacTiter-Glo cell viability assay", "format": "toxicity", "conditions": "read-out: Ratio CC50/IC50"}, "[27]": {"experiment": "Selectivity ratio of CC50 for human HeLa cells incubated for 2 days by alamarBlue reagent to IC50 for Giardia lamblia WB-M2 measured after 48 hrs by BacTiter-Glo cell viability assay", "format": "toxicity", "conditions": "time 2 day, read-out: Ratio CC50/IC50"}, "Giardia intestinalis [28]": {"test_system": "Giardia intestinalis", "experiment": "Antigiardial activity against metronidazole-resistant Giardia duodenalis WB-M3", "format": "functional"}, "Giardia intestinalis [29]": {"test_system": "Giardia intestinalis", "experiment": "Antigiardial activity against metronidazole-resistant Giardia duodenalis 106-2ID10", "format": "functional"}, "Giardia intestinalis [30]": {"test_system": "Giardia intestinalis", "experiment": "Antigiardial activity against metronidazole-resistant Giardia duodenalis 713-M3", "format": "functional"}, "Giardia intestinalis [31]": {"test_system": "Giardia intestinalis", "experiment": "Antigiardial activity against Giardia lamblia incubated for 48 hrs by ATPLite reagent based luminescence assay", "format": "functional, organism-based", "conditions": "Giardia duodenalis"}, "Giardia intestinalis [32]": {"test_system": "Giardia intestinalis", "experiment": "Antigiardial activity against Giardia lamblia 713M3 trophozoites incubated for 3 days by microscopic method", "format": "functional, Giardia duodenalis", "conditions": "time 3 day"}, "Giardia intestinalis [33]": {"test_system": "Giardia intestinalis", "experiment": "Antigiardial activity against Giardia lamblia GS/H7 trophozoites incubated for 3 days by microscopic method", "format": "functional, Giardia duodenalis", "conditions": "time 3 day"}}}
{"smiles": "Cc1ncc([N+](=O)[O-])n1CCOC(=O)Nc1ccc(F)cc1", "values": [{"measurement": "IC50", "setting": "Giardia intestinalis [1]", "value": 500, "unit": "nM"}]}
{"smiles": "CN1CC/C(=C\\c2ncc([N+](=O)[O-])n2C)C1=O", "values": [{"measurement": "MLC", "setting": "Giardia intestinalis [2]", "value": 1, "unit": "µM"}, {"measurement": "MLC", "setting": "Giardia intestinalis [3]", "value": 1, "unit": "µM"}, {"measurement": "MLC", "setting": "Giardia intestinalis [4]", "value": 5, "unit": "µM"}, {"measurement": "MLC", "setting": "Giardia intestinalis [5]", "value": 10, "unit": "µM"}]}
{"smiles": "CCCCCCCCCCC[C@@H](C[C@@H]1OC(=O)[C@H]1CCCCCC)OC(=O)[C@H](CC(C)C)NC=O", "note": "[ORLISTAT]", "values": [{"measurement": "IC50", "setting": "Giardia intestinalis [6]", "value": 2800, "unit": "nM"}]}
{"smiles": "CCCSc1ccc2nc(NC(=O)OC)[nH]c2c1", "note": "[ALBENDAZOLE]", "values": [{"measurement": "IC50", "setting": "Giardia intestinalis [7]", "value": 55, "unit": "nM"}, {"measurement": "IC50", "setting": "Giardia intestinalis [8]", "value": 55, "unit": "nM"}, {"measurement": "IC50", "setting": "Giardia intestinalis [9]", "value": 55, "unit": "nM"}, {"measurement": "IC50", "setting": "Giardia intestinalis [10]", "value": 55, "unit": "nM"}, {"measurement": "IC50", "setting": "Giardia intestinalis [11]", "value": 55, "unit": "nM"}, {"measurement": "IC50", "setting": "Giardia intestinalis [12]", "value": 55, "unit": "nM"}, {"measurement": "IC50", "setting": "Giardia intestinalis [13]", "value": 55, "unit": "nM"}, {"measurement": "IC50", "setting": "Giardia intestinalis [14]", "value": 55, "unit": "nM"}, {"measurement": "IC50", "setting": "Giardia intestinalis [15]", "value": 55, "unit": "nM"}, {"measurement": "half-life", "setting": "[16]", "value": 480, "unit": "min"}]}
{"smiles": "Cc1ncc([N+](=O)[O-])n1CCOC(=O)Nc1ccc([N+](=O)[O-])cc1", "values": [{"measurement": "IC50", "setting": "Giardia intestinalis [1]", "value": 500, "unit": "nM"}]}
{"smiles": "O=[N+]([O-])c1ccc(SCCCCCCO)c2nonc12", "values": [{"measurement": "IC50", "setting": "Giardia intestinalis [17]", "value": 600, "unit": "nM"}, {"measurement": "IC50", "setting": "Giardia intestinalis [18]", "value": 300, "unit": "nM"}]}
{"smiles": "Cc1ncc([N+](=O)[O-])n1CCNC(=O)/C=C/c1ccc([N+](=O)[O-])o1", "values": [{"measurement": "IC50", "setting": "Giardia intestinalis [19]", "value": 5.6, "unit": "µM"}]}
{"smiles": "CC(=O)c1ccc(-c2cn(CCn3c([N+](=O)[O-])cnc3/C=C/c3ccco3)nn2)cc1", "values": [{"measurement": "IC50", "setting": "Giardia intestinalis [20]", "value": 3, "unit": "nM"}, {"measurement": "selectivity ratio at 48 h", "setting": "[21]", "value": "> 16800"}]}
{"smiles": "O=C(/C=C/c1ccc([N+](=O)[O-])o1)N1CCN(c2ccnc3cc(Cl)ccc23)CC1", "values": [{"measurement": "IC50", "setting": "Giardia intestinalis [19]", "value": 145, "unit": "µM"}]}
{"smiles": "O=C(CCCCCn1cc(C2CC2)nn1)Nc1ncc([N+](=O)[O-])s1", "values": [{"measurement": "IC50", "setting": "Giardia intestinalis [20]", "value": 100, "unit": "nM"}, {"measurement": "selectivity ratio at 48 h", "setting": "[21]", "value": "> 500"}, {"measurement": "IC50", "setting": "Giardia intestinalis [22]", "value": 100, "unit": "nM"}, {"measurement": "IC50", "setting": "Giardia intestinalis [23]", "value": 100, "unit": "nM"}, {"measurement": "IC50", "setting": "Giardia intestinalis [24]", "value": 1800, "unit": "nM"}, {"measurement": "selectivity ratio at 48 h", "setting": "[25]", "value": "> 27"}, {"measurement": "selectivity ratio at 48 h", "setting": "[26]", "value": "> 27"}, {"measurement": "selectivity ratio at 48 h", "setting": "[27]", "value": "> 27"}]}
{"smiles": "Cc1ncc([N+](=O)[O-])n1CC(C)O", "note": "(stereo not given) [SECNIDAZOLE]", "values": [{"measurement": "IC50", "setting": "Giardia intestinalis [1]", "value": 4100, "unit": "nM"}]}
{"smiles": "Cc1ncc([N+](=O)[O-])n1CC(C)OC(=O)Nc1ccc(Cl)cc1", "note": "(stereo not given)", "values": [{"measurement": "IC50", "setting": "Giardia intestinalis [1]", "value": 500, "unit": "nM"}]}
{"smiles": "CC(=O)Oc1ccccc1C(=O)Nc1ncc([N+](=O)[O-])s1", "note": "[NITAZOXANIDE]", "values": [{"measurement": "half-life", "setting": "[16]", "value": 438, "unit": "min"}]}
{"smiles": "Cn1c(-c2ccc3c(c2)OCO3)cnc1/C=C/c1ncc([N+](=O)[O-])n1C", "values": [{"measurement": "MIC", "setting": "Giardia intestinalis [28]", "value": 1, "unit": "µM"}, {"measurement": "MIC", "setting": "Giardia intestinalis [29]", "value": 1, "unit": "µM"}, {"measurement": "MIC", "setting": "Giardia intestinalis [30]", "value": 0.5, "unit": "µM"}]}
{"smiles": "CCN(CC)C(=S)SSC(=S)N(CC)CC", "values": [{"measurement": "IC50", "setting": "Giardia intestinalis [31]", "value": 900, "unit": "nM"}, {"measurement": "MLC", "setting": "Giardia intestinalis [32]", "value": 0.8, "unit": "µM"}, {"measurement": "MLC", "setting": "Giardia intestinalis [33]", "value": 1.5, "unit": "µM"}]}
